PubChem BioAssay (NCI)
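GI50: concentration for 50% inhibition of growth. TGI denotes the concentration required for complete inhibition of growth.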 Where a SMILES comes first, the peptide text is derived from it. [ ]: non-standard residue; d: D form. The star is where a group is joined. Dolaproine = CO[C@@H]([C@@H]1CCCN1)[C@@H](C)C(=O)O; Dil = CC[C@H](C)[C@H](NC)[C@@H](CC(=O)O)OC; X2 = C[C@@H](N*)[C@@H](O)c1ccccc1; NMeV = CN[C@H](C(=O)O)C(C)C

What was measured:
Experiment in all cases: NCI-60 cell line screen, 384-well format
HT29 colon = test system: HT29 colon
SF-295 CNS = test system: SF-295 CNS
SK-MEL-5 melanoma = test system: SK-MEL-5 melanoma
SK-MEL-2 melanoma = test system: SK-MEL-2 melanoma
MDA-MB-231 breast = test system: MDA-MB-231 breast
A498 renal = test system: A498 renal
U251 glioblastoma = test system: U251 glioblastoma
OVCAR-4 ovarian = test system: OVCAR-4 ovarian
CAKI-1 renal = test system: CAKI-1 renal
SR leukemia = test system: SR leukemia
MCF7 breast = test system: MCF7 breast
HCT-15 colon = test system: HCT-15 colon
KM12 colon = test system: KM12 colon
NCI-H322M lung = test system: NCI-H322M lung
SK-OV-3 ovarian = test system: SK-OV-3 ovarian
HOP-92 NSCLC = test system: HOP-92 NSCLC
NCI-H226 lung = test system: NCI-H226 lung
IGROV1 ovarian = test system: IGROV1 ovarian
UACC-62 melanoma = test system: UACC-62 melanoma
UO-31 renal = test system: UO-31 renal
LOX IMVI melanoma = test system: LOX IMVI melanoma
RXF 393 renal = test system: RXF 393 renal
SN12C renal = test system: SN12C renal
NCI-H460 NSCLC = test system: NCI-H460 NSCLC
SF-268 CNS = test system: SF-268 CNS
NCI-H23 lung = test system: NCI-H23 lung
SF-539 CNS = test system: SF-539 CNS
786-0 renal = test system: 786-0 renal
M14 melanoma = test system: M14 melanoma
RPMI-8226 leukemia = test system: RPMI-8226 leukemia
BT-549 breast = test system: BT-549 breast
MOLT-4 leukemia = test system: MOLT-4 leukemia
A549 NSCLC = test system: A549 NSCLC
NCI/ADR-RES ovarian = test system: NCI/ADR-RES ovarian
OVCAR-8 ovarian = test system: OVCAR-8 ovarian
T-47D breast = test system: T-47D breast
MDA-MB-435 melanoma = test system: MDA-MB-435 melanoma
OVCAR-5 ovarian = test system: OVCAR-5 ovarian
COLO 205 colon = test system: COLO 205 colon
HCT-116 colon = test system: HCT-116 colon
SW-620 colon = test system: SW-620 colon
ACHN renal = test system: ACHN renal
NCI-H522 lung = test system: NCI-H522 lung
TK-10 renal = test system: TK-10 renal
CCRF-CEM leukemia = test system: CCRF-CEM leukemia
OVCAR-3 ovarian = test system: OVCAR-3 ovarian
MALME-3M melanoma = test system: MALME-3M melanoma
UACC-257 melanoma = test system: UACC-257 melanoma
K-562 leukemia = test system: K-562 leukemia
HOP-62 NSCLC = test system: HOP-62 NSCLC
SNB-19 CNS = test system: SNB-19 CNS
HL-60(TB) leukemia = test system: HL-60(TB) leukemia
MDA-MB-468 breast = test system: MDA-MB-468 breast
HCC-2998 colon = test system: HCC-2998 colon
DU-145 prostate = test system: DU-145 prostate

In the case of CC[C@H](C)[C@@H]([C@@H](CC(=O)N1CCC[C@H]1[C@H](OC)[C@@H](C)C(=O)N[C@H](C)[C@@H](O)c1ccccc1)OC)N(C)C(=O)[C@@H](NC(=O)[C@@H](NC)C(C)C)C(C)C (H-[NMeV]V[Dil][Dolaproine]-X2), the GI50 (HT29 colon) is reported as < 10 nM, the TGI (HT29 colon) is reported as < 10 nM and the GI50 (SF-295 CNS) is reported as < 10 nM. The TGI (SF-295 CNS) was < 10 nM, the GI50 (SK-MEL-5 melanoma) was < 10 nM and the TGI (SK-MEL-5 melanoma) was < 10 nM. For the same molecule, the GI50 (SK-MEL-2 melanoma) was < 10 nM, the TGI (SK-MEL-2 melanoma) was < 10 nM and the GI50 (MDA-MB-231 breast) was < 10 nM. The TGI (MDA-MB-231 breast) was < 10 nM, the GI50 (A498 renal) was < 10 nM and the TGI (A498 renal) was 11.2 nM. For the same molecule, the GI50 (U251 glioblastoma) was < 10 nM, the TGI (U251 glioblastoma) was < 10 nM and the GI50 (OVCAR-4 ovarian) was < 10 nM. The TGI (OVCAR-4 ovarian) was 24300 nM, the GI50 (CAKI-1 renal) was < 10 nM and the TGI (CAKI-1 renal) was 24400 nM. For the same molecule, the GI50 (SR leukemia) was < 10 nM, the TGI (SR leukemia) was < 10 nM and the GI50 (MCF7 breast) was < 10 nM. For the same molecule, the TGI (MCF7 breast) was 121 nM, the GI50 (HCT-15 colon) was < 10 nM and the TGI (HCT-15 colon) was 63.2 nM. The GI50 (KM12 colon) was < 10 nM, the TGI (KM12 colon) was < 10 nM and the GI50 (NCI-H322M lung) was < 10 nM. The TGI (NCI-H322M lung) was > 100000 nM, the GI50 (SK-OV-3 ovarian) was < 10 nM and the TGI (SK-OV-3 ovarian) was < 10 nM. The GI50 (HOP-92 NSCLC) was < 10 nM, the TGI (HOP-92 NSCLC) was < 10 nM and the GI50 (NCI-H226 lung) was < 10 nM. For the same molecule, the TGI (NCI-H226 lung) was < 10 nM, the GI50 (IGROV1 ovarian) was < 10 nM and the TGI (IGROV1 ovarian) was 91.6 nM. The GI50 (UACC-62 melanoma) was < 10 nM, the TGI (UACC-62 melanoma) was < 10 nM and the GI50 (UO-31 renal) was < 10 nM. The TGI (UO-31 renal) was > 100000 nM, the GI50 (LOX IMVI melanoma) was < 10 nM and the TGI (LOX IMVI melanoma) was < 10 nM. For the same molecule, the GI50 (RXF 393 renal) was < 10 nM, the TGI (RXF 393 renal) was < 10 nM and the GI50 (SN12C renal) was < 10 nM. The TGI (SN12C renal) was > 100000 nM, the GI50 (NCI-H460 NSCLC) was < 10 nM and the TGI (NCI-H460 NSCLC) was < 10 nM. For the same molecule, the GI50 (SF-268 CNS) was < 10 nM, the TGI (SF-268 CNS) was < 10 nM and the GI50 (NCI-H23 lung) was < 10 nM. The TGI (NCI-H23 lung) was < 10 nM, the GI50 (SF-539 CNS) was < 10 nM and the TGI (SF-539 CNS) was < 10 nM. The GI50 ([…]-0 renal) was < 10 nM, the TGI (786-0 renal) was < 10 nM and the GI50 (M14 melanoma) was < 10 nM. For the same molecule, the TGI (M14 melanoma) was < 10 nM, the GI50 (RPMI-8226 leukemia) was < 10 nM and the TGI (RPMI-8226 leukemia) was < 10 nM. The GI50 (BT-549 breast) was < 10 nM, the TGI (BT-549 breast) was < 10 nM and the GI50 (MOLT-4 leukemia) was < 10 nM. The TGI (MOLT-4 leukemia) was < 10 nM, the GI50 (A549 NSCLC) was < 10 nM and the TGI (A549 NSCLC) was < 10 nM. The GI50 (NCI/ADR-RES ovarian) was 105 nM, the TGI (NCI/ADR-RES ovarian) was 266 nM and the GI50 (OVCAR-8 ovarian) was < 10 nM. The TGI (OVCAR-8 ovarian) was < 10 nM, the GI50 (T-47D breast) was < 10 nM and the TGI (T-47D breast) was > 100000 nM. For the same molecule, the GI50 (MDA-MB-435 melanoma) was < 10 nM, the TGI (MDA-MB-435 melanoma) was < 10 nM and the GI50 (OVCAR-5 ovarian) was < 10 nM. The TGI (OVCAR-5 ovarian) was > 100000 nM, the GI50 (COLO 205 colon) was < 10 nM and the TGI (COLO 205 colon) was < 10 nM. For the same molecule, the GI50 (HCT-116 colon) was < 10 nM, the TGI (HCT-116 colon) was < 10 nM and the GI50 (SW-620 colon) was < 10 nM. The TGI (SW-620 colon) was > 100000 nM, the GI50 (ACHN renal) was < 10 nM and the TGI (ACHN renal) was > 100000 nM. The GI50 (NCI-H522 lung) was < 10 nM, the TGI (NCI-H522 lung) was < 10 nM and the GI50 (TK-10 renal) was < 10 nM. The TGI (TK-10 renal) was > 100000 nM, the GI50 (CCRF-CEM leukemia) was < 10 nM and the TGI (CCRF-CEM leukemia) was < 10 nM. The GI50 (OVCAR-3 ovarian) was < 10 nM, the TGI (OVCAR-3 ovarian) was < 10 nM and the GI50 (MALME-3M melanoma) was < 10 nM. The TGI (MALME-3M melanoma) was < 10 nM, the GI50 (UACC-257 melanoma) was < 10 nM and the TGI (UACC-257 melanoma) was 12700 nM. For the same molecule, the GI50 (K-562 leukemia) was < 10 nM, the TGI (K-562 leukemia) was < 10 nM and the GI50 (HOP-62 NSCLC) was < 10 nM. For the same molecule, the TGI (HOP-62 NSCLC) was 30.4 nM, the GI50 (SNB-19 CNS) was < 10 nM and the TGI (SNB-19 CNS) was < 10 nM. The GI50 (HL-60(TB) leukemia) was < 10 nM, the TGI (HL-60(TB) leukemia) was < 10 nM and the GI50 (MDA-MB-468 breast) was < 10 nM. For the same molecule, the TGI (MDA-MB-468 breast) was < 10 nM, the GI50 (HCC-2998 colon) was < 10 nM and the TGI (HCC-2998 colon) was < 10 nM. For the same molecule, the GI50 (DU-145 prostate) was < 10 nM and the TGI (DU-145 prostate) was < 10 nM.
